Laboratory results from patent publication US9751837B2, “Kinase inhibitors” (RESPIVERT LIMITED, priority 2014, dated 2017).
Where two headings read alike, the source gives them in different places.

Tests used:
GSK 3α = GSK 3α (Homo sapiens (Human), UniProt P49840); test: GSK 3α enzyme inhibition (Method 2), Z-LYTE FRET; format: biochemical; settings: read-out: IC50 Values for Enzyme Inhibition GSK3α
In short: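 Z-LYTE format: the protease cleaves only non-phosphorylated peptide, and the donor/acceptor (coumarin/fluorescein) ratio reports phosphorylation after a 1 hr kinase reaction with peptide (8 μM stock) and ATP (40 μM stock).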

p38 MAPKα = p38 MAPKα (Homo sapiens (Human), UniProt Q16539); test: KINOMEscan dissociation constant, p38 MAPKα; format: binding
Description: (§1) These assays may be conducted by DiscoverX (formerly Ambit; San Diego, Calif.).

hERG = hERG (Homo sapiens (Human), UniProt Q12809); test: hERG inhibition, IonWorks patch clamp electrophysiology; format: cell-based; settings: human, hERG, read-out: % Inhibition at Top Concentration
Protocol: (§2) Compounds of the invention were tested for inhibition of the human ether a go-go (hERG) channel using IonWorks™ patch clamp electrophysiology at Essen Bioscience (Welwyn Garden City, England).

[1] = molecular target: human ether a go-go (hERG) channel (Homo sapiens (Human), UniProt Q12809); test: as above; format: cell-based; settings: IonWorks patch clamp
Protocol: as §2

Syk = Syk (Homo sapiens (Human), UniProt P43405); test: KINOMEscan dissociation constant, Syk; format: binding
Description: as §1

Lck = Lck (Homo sapiens (Human), UniProt P06239); test: KINOMEscan dissociation constant, Lck; format: binding
Description: as §1

B-Raf (V600E) = B-Raf (V600E) (Homo sapiens (Human), UniProt P15056, V600E); test: KINOMEscan binding of B-Raf (V600E) to its standard ligand
Description: as §1

[2] = Pharmacokinetics and total colon distribution after single oral administration; format: in vivo, male C57BL/6 mice; settings: male, C57BL/6, mouse, mice, oral 5 mg/kg
Protocol: Studies were conducted by Sai Life Sciences (Hinjewadi, Pune, India) to investigate the systemic pharmacokinetics and total colon tissue distribution of compounds of the invention. In particular, pharmacokinetic studies were carried out in male C57BL/6 mice following a single oral administration of the compound.

B-Raf = B-Raf (Homo sapiens (Human), UniProt P15056); test: KINOMEscan binding of B-Raf to its standard ligand
Description: as §1

[3] = tested on: Escherichia coli, WP2 uvrA; test: Bacterial reverse mutation screen, Escherichia coli
[4] = tested on: Salmonella typhimurium, strains TA1535, TA1537, TA98 and TA100; test: Bacterial reverse mutation screen, Salmonella typhimurium
non-mutant kinases = test: KinomeScan Selectivity Scores; format: binding
Description: as §1

Jurkat cells = test: Cell cytotoxicity assay (r); format: cell-based, human; settings: 24 hours, 5 μg/mL
In short: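 Viability read by flow cytometry as the fraction of propidium iodide-negative cells (7.5 μg/mL PI, 15 min), relative to 1.0% DMSO control. Beforehand, 1×10^5 Jurkat cells in RPMI/10% FBS were treated 24 h at 37° C., 5% CO2 with test compound at final 20, 5 or 1 μg/mL.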

[5] = plasma, measured cpd = dosed cpd (1 as Na salt, 44 as NH4+ salt), read-out: Mean plasma concentration
[6] = total colon tissue, measured cpd = dosed cpd (1, 19, 47 as Na salt, 44 as NH4+ salt), read-out: total colon level
[7] = total colon, measured cpd = dosed cpd (1, 19, 47 as Na salt, 44 as NH4+ salt), read-out: total colon level
[8] = blood, measured cpd = dosed cpd (19, 47 as Na salt), read-out: Mean blood concentration

Sequence of hERG (Q12809 whole entry): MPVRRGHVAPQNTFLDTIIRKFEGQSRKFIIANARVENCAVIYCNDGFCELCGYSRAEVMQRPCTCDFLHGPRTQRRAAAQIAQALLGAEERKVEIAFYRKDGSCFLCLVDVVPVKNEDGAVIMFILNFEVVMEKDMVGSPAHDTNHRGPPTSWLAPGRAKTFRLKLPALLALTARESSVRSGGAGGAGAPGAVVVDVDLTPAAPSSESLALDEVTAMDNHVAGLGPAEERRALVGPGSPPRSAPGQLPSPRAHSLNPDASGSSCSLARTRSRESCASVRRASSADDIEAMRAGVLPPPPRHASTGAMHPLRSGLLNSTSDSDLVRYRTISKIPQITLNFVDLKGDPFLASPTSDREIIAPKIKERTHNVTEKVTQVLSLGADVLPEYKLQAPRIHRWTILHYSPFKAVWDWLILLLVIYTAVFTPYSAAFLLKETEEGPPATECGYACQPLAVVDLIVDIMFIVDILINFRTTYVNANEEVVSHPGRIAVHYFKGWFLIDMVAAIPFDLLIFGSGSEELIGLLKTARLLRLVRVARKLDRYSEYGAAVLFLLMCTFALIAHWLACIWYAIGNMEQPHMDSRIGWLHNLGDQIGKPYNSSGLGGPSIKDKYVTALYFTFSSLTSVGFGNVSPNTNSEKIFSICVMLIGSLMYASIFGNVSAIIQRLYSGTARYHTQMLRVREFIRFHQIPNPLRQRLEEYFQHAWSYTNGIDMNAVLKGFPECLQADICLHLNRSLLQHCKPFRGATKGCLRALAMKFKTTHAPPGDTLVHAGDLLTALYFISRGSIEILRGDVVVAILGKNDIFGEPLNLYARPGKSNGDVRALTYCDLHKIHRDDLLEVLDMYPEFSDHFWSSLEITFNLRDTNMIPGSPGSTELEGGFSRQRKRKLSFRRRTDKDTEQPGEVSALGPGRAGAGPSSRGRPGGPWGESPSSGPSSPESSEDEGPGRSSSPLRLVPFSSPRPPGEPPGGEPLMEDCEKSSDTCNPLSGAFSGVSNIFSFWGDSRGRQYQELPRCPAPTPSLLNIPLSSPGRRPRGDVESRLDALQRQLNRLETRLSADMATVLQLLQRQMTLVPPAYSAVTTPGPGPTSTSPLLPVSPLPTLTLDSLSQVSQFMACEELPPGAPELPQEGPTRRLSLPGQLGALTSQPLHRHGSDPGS
Sequence of human ether a go-go (hERG) channel (Q12809 whole entry): as above
Sequence of p38 MAPKα (Q16539 whole entry): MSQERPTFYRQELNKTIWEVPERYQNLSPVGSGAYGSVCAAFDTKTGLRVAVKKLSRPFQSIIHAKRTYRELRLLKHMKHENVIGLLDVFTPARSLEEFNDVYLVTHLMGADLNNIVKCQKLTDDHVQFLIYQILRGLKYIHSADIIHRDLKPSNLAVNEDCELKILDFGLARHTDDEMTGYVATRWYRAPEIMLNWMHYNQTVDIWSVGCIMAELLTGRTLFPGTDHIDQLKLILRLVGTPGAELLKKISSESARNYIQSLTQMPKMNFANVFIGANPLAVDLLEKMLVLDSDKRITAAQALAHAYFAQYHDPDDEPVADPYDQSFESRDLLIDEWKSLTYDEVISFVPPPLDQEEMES
Sequence of Lck (P06239 whole entry): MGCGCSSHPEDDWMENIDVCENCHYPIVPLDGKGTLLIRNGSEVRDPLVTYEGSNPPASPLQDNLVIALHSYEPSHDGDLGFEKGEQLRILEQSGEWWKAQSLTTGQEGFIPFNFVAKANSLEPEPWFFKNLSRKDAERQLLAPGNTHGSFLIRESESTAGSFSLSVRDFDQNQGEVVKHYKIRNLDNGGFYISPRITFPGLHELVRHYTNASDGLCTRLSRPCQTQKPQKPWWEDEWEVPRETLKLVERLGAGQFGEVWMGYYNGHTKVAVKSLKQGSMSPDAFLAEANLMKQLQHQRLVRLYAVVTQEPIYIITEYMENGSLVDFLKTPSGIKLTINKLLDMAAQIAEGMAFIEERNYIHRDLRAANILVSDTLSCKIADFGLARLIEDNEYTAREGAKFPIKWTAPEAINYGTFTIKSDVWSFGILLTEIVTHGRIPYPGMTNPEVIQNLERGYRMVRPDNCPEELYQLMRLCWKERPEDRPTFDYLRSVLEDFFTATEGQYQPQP
Sequence of B-Raf (V600E) (P15056 whole entry V600E): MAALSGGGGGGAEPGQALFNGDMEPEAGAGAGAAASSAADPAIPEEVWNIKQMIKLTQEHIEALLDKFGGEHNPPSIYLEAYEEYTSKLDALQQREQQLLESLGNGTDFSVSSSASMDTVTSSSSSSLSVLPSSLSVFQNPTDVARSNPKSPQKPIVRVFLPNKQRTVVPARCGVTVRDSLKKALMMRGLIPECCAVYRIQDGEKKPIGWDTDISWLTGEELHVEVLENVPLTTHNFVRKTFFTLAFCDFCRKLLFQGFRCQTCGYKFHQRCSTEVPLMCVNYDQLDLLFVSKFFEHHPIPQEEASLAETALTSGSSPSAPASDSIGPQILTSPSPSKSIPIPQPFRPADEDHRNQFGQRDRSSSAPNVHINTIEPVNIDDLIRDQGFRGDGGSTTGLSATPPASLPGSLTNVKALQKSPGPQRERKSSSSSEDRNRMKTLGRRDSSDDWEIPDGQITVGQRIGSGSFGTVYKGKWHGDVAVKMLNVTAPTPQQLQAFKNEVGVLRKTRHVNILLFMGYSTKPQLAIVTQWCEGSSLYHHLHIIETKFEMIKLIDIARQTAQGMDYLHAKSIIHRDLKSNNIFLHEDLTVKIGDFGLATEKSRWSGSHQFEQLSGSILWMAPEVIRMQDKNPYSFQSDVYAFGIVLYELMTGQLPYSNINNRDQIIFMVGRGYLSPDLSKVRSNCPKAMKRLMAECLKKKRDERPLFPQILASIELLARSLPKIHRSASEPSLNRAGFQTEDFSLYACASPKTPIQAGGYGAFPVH
Sequence of B-Raf (P15056 whole entry): as the sequence (P15056 whole entry V600E) above, with E600V counted along it
Sequence of GSK 3α (P49840 whole entry): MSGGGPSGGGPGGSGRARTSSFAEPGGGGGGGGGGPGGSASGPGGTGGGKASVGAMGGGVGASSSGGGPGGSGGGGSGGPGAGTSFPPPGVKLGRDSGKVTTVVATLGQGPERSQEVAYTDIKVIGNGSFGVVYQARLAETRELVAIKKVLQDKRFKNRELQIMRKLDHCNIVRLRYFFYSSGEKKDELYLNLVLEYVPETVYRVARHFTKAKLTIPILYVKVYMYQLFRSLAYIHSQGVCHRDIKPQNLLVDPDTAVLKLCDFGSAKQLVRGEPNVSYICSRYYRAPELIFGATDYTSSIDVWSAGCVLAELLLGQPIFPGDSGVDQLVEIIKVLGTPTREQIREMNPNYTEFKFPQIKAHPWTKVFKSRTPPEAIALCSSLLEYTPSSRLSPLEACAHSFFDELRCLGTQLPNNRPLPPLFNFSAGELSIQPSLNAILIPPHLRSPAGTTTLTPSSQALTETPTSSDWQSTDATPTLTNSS

Row | Structure (SMILES) | Kd (p38 MAPKα) | IC50 [1] | Kd (Syk) | Kd (Lck) | effect on the binding of B-Raf (V600E) to its standard ligand (B-Raf (V600E)) | concentration at 2 h [2, 6] | concentration at 4 h [2, 6] | concentration at 6 h [2, 6] | concentration at 8 h [2, 6] | concentration at 12 h [2, 6] | concentration at 0.5 h [2, 7] | concentration at 1 h [2, 7] | concentration at 24 h [2, 7] | inhibition at 11 µM (hERG) | effect on the binding of B-Raf to its standard ligand (B-Raf) | other results
1 | COc1cc(Nc2cc(Oc3ccc(NC(=O)Nc4cc(C(C)(C)C)cc(NS(C)(=O)=O)c4OC)c4ccccc34)ccn2)ccc1C(=O)NCCN1CCOCC1 [Example 2, 4-((4-((4-(3-(5-(tert-Butyl)-2-methoxy-3-(methylsulfonamido)phenyl)ureido)naphthalen-1-yl)oxy)pyridin-2-yl)amino)-2-methoxy-N-(2-morpholinoethyl)benzamide] | 23 nM | > 3300 nM | 18 nM | 5.8 nM |  |  |  |  |  |  |  |  |  |  |  | IC50 (GSK 3α): 2300 nM; inhibition at 3 µM (hERG; 3 μM): -2%
2 | COc1cc(Nc2cc(Oc3ccc(NC(=O)Nc4cc(C(C)(C)C)cc(NS(C)(=O)=O)c4OC)c4ccccc34)ccn2)ccc1P(C)(=O)O [Example 44, (4-((4-((4-(3-(5-(tert-Butyl)-2-methoxy-3-(methylsulfonamido)phenyl)ureido)naphthalen-1-yl)oxy)pyridin-2-yl)amino)-2-methoxyphenyl)(methyl)phosphinic acid] | 1.9 nM | > 11000 nM | 6.6 nM | 5.3 nM | did not have any significant effect | 2330 ng/g | 1750 ng/g | 450 ng/g | 915 ng/g | 180 ng/g | 0 ng/g | 0 ng/g | 0 ng/g | 18% | did not have any significant effect | concentration at 0.5 h [2, 5]: 0 ng/mL; concentration at 1 h [2, 5]: 0 ng/mL; concentration at 2 h [2, 5]: 0 ng/mL; concentration at 4 h [2, 5]: 0 ng/mL; concentration at 6 h [2, 5]: 0 ng/mL; concentration at 8 h [2, 5]: 0 ng/mL; concentration at 12 h [2, 5]: 0 ng/mL; concentration at 24 h [2, 5]: 0 ng/mL; dose with reduction in the mean colony count (toxicity to the bacteria) ([3]; absence of S-9 mix): 5000 μg/plate; mutagenic effects (revertant numbers) ([3]; presence or absence of S-9 mix, plate incorporation): absence of any mutagenic effects; dose with reduction in the mean colony count (toxicity to the bacteria) ([4]; TA98, presence of S-9 mix): 5000 μg/plate; dose with reduction in the mean colony count (toxicity to the bacteria) ([4]; TA100, presence of S-9 mix): 5000 μg/plate; mutagenic effects (revertant numbers) ([4]; TA1535, TA1537, TA98, TA100, presence or absence of S-9 mix, plate incorporation): absence of any mutagenic effects; dose with reduction in the mean colony count (toxicity to the bacteria) ([4]; TA1535, presence of S-9 mix): 5000 μg/plate; dose with reduction in the mean colony count (toxicity to the bacteria) ([4]; TA1537, presence of S-9 mix): 5000 μg/plate; limit of solubility in the mutation test ([4]; all strains, presence and absence of S-9 mix, plate incorporation): 5000 μg/plate
3 | COc1cc(Nc2cc(Oc3ccc(NC(=O)Nc4cc(C(C)(C)C)cc(NS(C)(=O)=O)c4OC)c4ccccc34)ccn2)cc(OC)c1C(=O)NCCOCCOCCOP(=O)(O)O [Example 47, 2-(2-(2-(4-((4-((4-(3-(5-(tert-butyl)-2-methoxy-3-(methylsulfonamido)phenyl)ureido)-naphthalen-1-yl)oxy)pyridin-2-yl)amino)-2,6-dimethoxybenzamido)ethoxy)ethoxy)ethyl dihydrogen phosphate] |  | > 11000 nM |  |  | did not have any significant effect | 0 ng/g | 0 ng/g | 0 ng/g | 0 ng/g | 0 ng/g | 0 ng/g | 0 ng/g | 0 ng/g | 19% | did not have any significant effect | KinomeScan Selectivity Score S(10) (non-mutant kinases; 50 nM, (non-mutant kinases with % Ctrl <10)/(non-mutant kinases tested)): 0.042; KinomeScan Selectivity Score S(1) (non-mutant kinases; 500 nM, (non-mutant kinases with % Ctrl <1)/(non-mutant kinases tested)): 0.074; concentration at 0.5 h [2, 8]: 0 ng/mL; concentration at 1 h [2, 8]: 0 ng/mL; concentration at 2 h [2, 8]: 0 ng/mL; concentration at 4 h [2, 8]: 0 ng/mL; concentration at 6 h [2, 8]: 0 ng/mL; concentration at 8 h [2, 8]: 0 ng/mL; concentration at 12 h [2, 8]: 0 ng/mL; concentration at 24 h [2, 8]: 0 ng/mL; % Viability at 5 μg/mL (Jurkat cells): 96.0%
